Assay results reported in patent publication US20250171430A1, “PYRAZOLYL COMPOUNDS AS KV7 CHANNEL ACTIVATORS” (Biohaven Therapeutics Ltd., priority 2022, published 2025).

What follows are compounds tested against T1, Kv7.2/7.3 (Homo sapiens, UniProt O43525+O43526) (assay: Kv7.2/7.3 Activation Assay (Thallium Flux Assay)). Conditions: hKV7.2/7.3 cell line; test compound at single concentration of 10 μM; fluorescence at 90 sec normalized to positive control (retigabine, 30 μM).
T1 construct: Kv7.2 tetracycline-induced, Kv7.3 constitutive
Format: cell-based
In short: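 Human Kv7.2/7.3 cells with Kv7.2 induced overnight by 10 ng/mL tetracycline were loaded with FluxOR II Green for 1 h at 37 °C. Compounds were tested at 10 μM in 0.1% DMSO/extracellular solution, pH 7.4. Thallium/potassium stimulus was added after a 15 s baseline, and 90 s fluorescence (ex 475/em 530 nm) was normalized to 30 μM retigabine.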

Row | SMILES | Kv7.2/7.3 Activity
1 | Cn1nc(NC(=O)C2CC3(C2)CC3(F)F)c(C2CCC2)c1-c1ccc(OC(F)(F)F)cc1 (stereo not shown) [Compound 186, N-(4-cyclobutyl-1-methyl-5-(4-(trifluoromethoxy)phenyl)-1H-pyrazol-3-yl)-1,1-difluorospiro[2.3]hexane-5-carboxamide] | ++ (“++” High Activity ≥ 0.7)
2 | Cn1nc(NC(=O)C2CC3(CCC3)C2)c(C2CCC2)c1-c1ccc(F)cc1 [Compound 187, N-(4-cyclobutyl-5-(4-fluorophenyl)-1-methyl-1H-pyrazol-3-yl)spiro[3.3]heptane-2-carboxamide] | ++ (“++” High Activity ≥ 0.7)
3 | Cn1nc(NC(=O)C2CC(C(F)(F)F)C2)c(C2CCC2)c1-c1ccc(OC(F)(F)F)cc1 (stereo not shown) [Compound 191, N-(4-cyclobutyl-1-methyl-5-(4-(trifluoromethoxy)phenyl)-1H-pyrazol-3-yl)-3-(trifluoromethyl)cyclobutane-1-carboxamide] | ++ (“++” High Activity ≥ 0.7)
4 | Cn1nc(NC(=O)C2CC(F)(F)C2)c(C2CCC2)c1-c1ccc(Cl)s1 [Compound 194, N-(5-(5-chlorothiophen-2-yl)-4-cyclobutyl-1-methyl-1H-pyrazol-3-yl)-3,3-difluorocyclobutane-1-carboxamide] | ++ (“++” High Activity ≥ 0.7)
5 | Cn1nc(NC(=O)c2ccccc2)c(C2CCC2)c1-c1ccc(OC(F)(F)F)cc1 [Compound 198, N-(4-cyclobutyl-1-methyl-5-(4-(trifluoromethoxy)phenyl)-1H-pyrazol-3-yl)benzamide] | + (“+” Moderate Activity 0.15-0.7)
6 | Cn1nc(NC(=O)C2(C)CC(F)(F)C2)c(C2CCC2)c1-c1ccc(F)cc1 [Compound 199, N-(4-cyclobutyl-5-(4-fluorophenyl)-1-methyl-1H-pyrazol-3-yl)-3,3-difluoro-1-methylcyclobutane-1-carboxamide] | ++ (“++” High Activity ≥ 0.7)
7 | Cn1nc(NC(=O)[C@H]2C[C@H]2F)c(C2CCC2)c1-c1ccc(F)cc1 [Compound 206, (1R,2R)-N-(4-cyclobutyl-5-(4-fluorophenyl)-1-methyl-1H-pyrazol-3-yl)-2-fluorocyclopropane-1-carboxamide] | + (“+” Moderate Activity 0.15-0.7)
8 | Cn1nc(NC(=O)[C@H]2CC2(C)C)c(-c2ccc(F)cc2)c1C1CC(F)(F)C1 [Compound 207, (S)-N-(5-(3,3-difluorocyclobutyl)-4-(4-fluorophenyl)-1-methyl-1H-pyrazol-3-yl)-2,2-dimethylcyclopropane-1-carboxamide] | ++ (“++” High Activity ≥ 0.7)
9 | Cn1nc(NC(=O)C2(C)CC(F)(F)C2)c(C2CCC2)c1-c1ccc(Cl)s1 [Compound 210, N-(5-(5-chlorothiophen-2-yl)-4-cyclobutyl-1-methyl-1H-pyrazol-3-yl)-3,3-difluoro-1-methylcyclobutane-1-carboxamide] | ++ (“++” High Activity ≥ 0.7)
10 | Cn1nc(NC(=O)NC2CC(F)(F)C2)c(C2CCC2)c1-c1ccc(Cl)s1 [Compound 211, 1-(5-(5-chlorothiophen-2-yl)-4-cyclobutyl-1-methyl-1H-pyrazol-3-yl)-3-(3,3-difluorocyclobutyl)urea] | ++ (“++” High Activity ≥ 0.7)
11 | Cn1nc(NC(=O)NC2CC(F)(F)C2)c(C2CCC2)c1-c1ccc(F)c(F)c1 [Compound 213, 1-(4-cyclobutyl-5-(3,4-difluorophenyl)-1-methyl-1H-pyrazol-3-yl)-3-(3,3-difluorocyclobutyl)urea] | ++ (“++” High Activity ≥ 0.7)
12 | CO[C@@H](CC(=O)Nc1nn(C)c(-c2ccc(F)c(F)c2)c1C1CCC1)C(F)(F)F [Compound 215, (S)-N-(4-cyclobutyl-5-(3,4-difluorophenyl)-1-methyl-1H-pyrazol-3-yl)-4,4,4-trifluoro-3-methoxybutanamide] | ++ (“++” High Activity ≥ 0.7)
13 | COC1(CC(=O)Nc2nn(C)c(-c3ccc(F)c(F)c3)c2C2CCC2)CCC1 [Compound 216, N-(4-cyclobutyl-5-(3,4-difluorophenyl)-1-methyl-1H-pyrazol-3-yl)-2-(1-methoxycyclobutyl)acetamide] | ++ (“++” High Activity ≥ 0.7)

Now from value to compound:

Row | Kv7.2/7.3 Activity | SMILES
14 | ++ (“++” High Activity ≥ 0.7) | Cn1nc(NC(=O)C2CC(F)(F)C2)c(C2CCC2)c1C1CC(C)(C)C1 [Compound 188, N-(4-cyclobutyl-5-(3,3-dimethylcyclobutyl)-1-methyl-1H-pyrazol-3-yl)-3,3-difluorocyclobutane-1-carboxamide]
15 | + (“+” Moderate Activity 0.15-0.7) | Cn1nc(NC(=O)C2CC(F)(F)C2)c(C2CCC2)c1-c1ccc(OC(F)(F)F)cc1 [Compound 189, N-(4-cyclobutyl-1-methyl-5-(4-(trifluoromethoxy)phenyl)-1H-pyrazol-3-yl)-3,3-difluorocyclobutane-1-carboxamide]
16 | ++ (“++” High Activity ≥ 0.7) | Cn1nc(NC(=O)C2CCC2)c(C2CCC2)c1-c1ccc(OC(F)(F)F)cc1 [Compound 190, N-(4-cyclobutyl-1-methyl-5-(4-(trifluoromethoxy)phenyl)-1H-pyrazol-3-yl)cyclobutanecarboxamide]
17 | ++ (“++” High Activity ≥ 0.7) | Cn1nc(NC(=O)C2CC(F)(F)C2)c(C2CCC2)c1-c1ccc(F)c(F)c1 [Compound 192, N-(4-cyclobutyl-5-(3,4-difluorophenyl)-1-methyl-1H-pyrazol-3-yl)-3,3-difluorocyclobutane-1-carboxamide]
18 | ++ (“++” High Activity ≥ 0.7) | Cn1nc(NC(=O)C2CC(F)(F)C2)c(C2CCC2)c1-c1cccc(F)c1 [Compound 193, N-(4-cyclobutyl-5-(3-fluorophenyl)-1-methyl-1H-pyrazol-3-yl)-3,3-difluorocyclobutane-1-carboxamide]
19 | + (“+” Moderate Activity 0.15-0.7) | Cn1nc(NC(=O)C2CC(F)(F)C2)c(C2CCC2)c1-c1cnc(C(F)(F)F)s1 [Compound 195, N-(4-cyclobutyl-1-methyl-5-(2-(trifluoromethyl)thiazol-5-yl)-1H-pyrazol-3-yl)-3,3-difluorocyclobutane-1-carboxamide]
20 | + (“+” Moderate Activity 0.15-0.7) | Cn1nc(NC(=O)C(C2CC2)C2CC2)c(C2CCC2)c1-c1ccc(F)cc1 [Compound 196, N-(4-cyclobutyl-5-(4-fluorophenyl)-1-methyl-1H-pyrazol-3-yl)-2,2-dicyclopropylacetamide]
21 | ++ (“++” High Activity ≥ 0.7) | Cn1nc(NC(=O)c2ccccc2)c(C2CCC2)c1-c1ccc(F)cc1 [Compound 197, N-(4-cyclobutyl-5-(4-fluorophenyl)-1-methyl-1H-pyrazol-3-yl)benzamide]
22 | + (“+” Moderate Activity 0.15-0.7) | Cn1nc(NC(=O)C2(C)CC(F)(F)C2)c(C2CCC2)c1-c1ccc(OC(F)(F)F)cc1 [Compound 200, N-(4-cyclobutyl-1-methyl-5-(4-(trifluoromethoxy)phenyl)-1H-pyrazol-3-yl)-3,3-difluoro-1-methylcyclobutane-1-carboxamide]
23 | ++ (“++” High Activity ≥ 0.7) | Cn1nc(NC(=O)C2(C)CC(F)(F)C2)c(C2CCC2)c1-c1ccc(F)c(F)c1 [Compound 201, N-(4-cyclobutyl-5-(3,4-difluorophenyl)-1-methyl-1H-pyrazol-3-yl)-3,3-difluoro-1-methylcyclobutane-1-carboxamide]
24 | ++ (“++” High Activity ≥ 0.7) | Cn1nc(NC(=O)[C@H]2C[C@](C)(F)C2)c(C2CCC2)c1-c1ccc(F)cc1 [Compound 202, (1r,3r)-N-(4-cyclobutyl-5-(4-fluorophenyl)-1-methyl-1H-pyrazol-3-yl)-3-fluoro-3-methylcyclobutane-1-carboxamide]
25 | + (“+” Moderate Activity 0.15-0.7) | Cn1nc(NC(=O)[C@H]2C[C@](C)(F)C2)c(C2CCC2)c1-c1cnc(C(F)(F)F)s1 [Compound 203, (1r,3r)-N-(4-cyclobutyl-1-methyl-5-(2-(trifluoromethyl)thiazol-5-yl)-1H-pyrazol-3-yl)-3-fluoro-3-methylcyclobutane-1-carboxamide]
26 | ++ (“++” High Activity ≥ 0.7) | Cn1nc(NC(=O)C2CC3(C2)CC(F)(F)C3)c(C2CCC2)c1-c1ccc(F)cc1 [Compound 204, N-(4-cyclobutyl-5-(4-fluorophenyl)-1-methyl-1H-pyrazol-3-yl)-6,6-difluorospiro[3.3]heptane-2-carboxamide]
27 | ++ (“++” High Activity ≥ 0.7) | Cn1nc(NC(=O)C2CSC2)c(C2CCC2)c1-c1ccc(F)cc1 [Compound 205, N-(4-cyclobutyl-5-(4-fluorophenyl)-1-methyl-1H-pyrazol-3-yl)thietane-3-carboxamide]
28 | − (“−” No Activity < 0.15) | Cn1nc(NC(=O)C2(C)CC(F)(F)C2)c(C2CCC2)c1-c1ccc(C(F)(F)F)cc1 [Compound 208, N-(4-cyclobutyl-1-methyl-5-(4-(trifluoromethyl)phenyl)-1H-pyrazol-3-yl)-3,3-difluoro-1-methylcyclobutane-1-carboxamide]
29 | + (“+” Moderate Activity 0.15-0.7) | Cn1nc(NC(=O)C2CC(F)(F)C2)c(C2CCC2)c1-c1ccc(C(F)(F)F)cc1 [Compound 209, N-(4-cyclobutyl-1-methyl-5-(4-(trifluoromethyl)phenyl)-1H-pyrazol-3-yl)-3,3-difluorocyclobutane-1-carboxamide]
30 | + (“+” Moderate Activity 0.15-0.7) | Cn1nc(NC(=O)NC2CC(F)(F)C2)c(C2CCC2)c1-c1ccc(F)cc1 [Compound 212, 1-(4-cyclobutyl-5-(4-fluorophenyl)-1-methyl-1H-pyrazol-3-yl)-3-(3,3-difluorocyclobutyl)urea]
31 | ++ (“++” High Activity ≥ 0.7) | CCO[C@@H](CC(=O)Nc1nn(C)c(-c2ccc(F)c(F)c2)c1C1CCC1)C(F)(F)F [Compound 214, (S)-N-(4-cyclobutyl-5-(3,4-difluorophenyl)-1-methyl-1H-pyrazol-3-yl)-3-ethoxy-4,4,4-trifluorobutanamide]
